Where two headings read alike, the source gives them in different places.
Legend:
total IgG and total IgG1 = assay: Humoral response, comparison of calcium salts (Example 4); format: in vivo, OF1 mice; conditions: 0.5 mg of calcium salt, 50 μg antigen, 100 μl s.c.; injection repeated on D28; antibodies assayed on D42
Experimental: (§1) The therapeutic compositions were injected subcutaneously.
(§2) The antibodies were assayed 42 days after the vaccination.
(§3) Injection of the therapeutic composition was repeated on D28. The antibodies were assayed on D42.

IgG2a = assay: Cell response, comparison of calcium salts (Example 4); format: in vivo, OF1 mice; conditions: 0.5 mg of calcium salt, 50 μg antigen, 100 μl s.c.; injection repeated on D28; antibodies assayed on D42
Experimental: as §1, §2, §3

mice [1] = conditions: 0.5 mg of calcium salt, 50 μg antigen, 100 μl s.c.; observed during the tests of Example 4
Experimental: as §1
Each therapeutic composition, 100 μl in volume, contained 50 μg of antigen and, except for the control, 0.5 mg of a calcium salt, such that the calcium concentration of each composition was 2.7 mg.
as §3

anti-BSA antibodies = format: in vivo, OF1 mice; conditions: last dilution above background noise; for anti-BSA antibody/ primary response (D14) / anti-BSA antibody/ primary response (D28): 50 μg BSA in 100 μl s.c. on D0
Experimental: (§4) The examples were performed on OF1 mice whose average weight was between 18 and 20 g.
The results expressed are an average of the results obtained on 10 mice.
(§5) The therapeutic compositions comprised Sigma Grade V bovine serum albumin (BSA) as antigen.
as §1
The humoral immune response was determined by assay of the total IgG and of the total IgG1, according to the ELISA method.
The antibody levels mentioned in the examples correspond to the last dilution above the background noise.
Therapeutic compositions (or doses) of 100 μl each, comprising 50 μg of BSA, are prepared.
These therapeutic compositions were injected into the mice on D0 (i.e. the day of injection).
The level of anti-BSA antibodies was determined 14 and 28 days after the injection (primary response).
On D28, the same therapeutic composition was injected into the same mice.
The level of anti-BSA antibodies was determined on D42 and D56.

mice [2] = conditions: in vivo, sc
Experimental: as §4, §5, §1
A therapeutic composition 100 μl in volume, comprising 50 μg of antigen, was injected into various batches of mice each comprising 5 mice. The local reactions (lesions and granulomae) were evaluated on D8 and D35.

[3] = adjuvant 3 mg/dose, 50 μg BSA s.c. on D0, repeated on D28
[4] = adjuvant 0.5 mg/dose, 50 μg BSA s.c. on D0, repeated on D28
[5] = adjuvant 1 mg/dose, 50 μg BSA in 100 μl s.c. on D0, repeated on D28
[6] = adjuvant 2 mg/dose, 50 μg BSA s.c. on D0, repeated on D28

SMILES | Humoral response (total IgG and total IgG1) | Cell response (IgG2a) | local reactions (D8), Mouse No. 1 (mice [2]) | local reactions (D8), Mouse No. 2 (mice [2]) | local reactions (D8), Mouse No. 3 (mice [2]) | local reactions (D8), Mouse No. 4 (mice [2]) | local reactions (D8), Mouse No. 5 (mice [2]) | local reactions (D35), Mouse No. 1 (mice [2]) | local reactions (D35), Mouse No. 2 (mice [2]) | local reactions (D35), Mouse No. 3 (mice [2]) | local reactions (D35), Mouse No. 4 (mice [2]) | local reactions (D35), Mouse No. 5 (mice [2]) | further results
O=C([O-])[O-].[Ca+2] [CaCO3] | 32,000 | 4000 |  |  |  |  |  |  |  |  |  |  | 
[Ca+2].[Cl-].[Cl-] [CaCl2] | 64,000 | 24,000 |  |  |  |  |  |  |  |  |  |  | lesions induced (mice [1]): very large lesions
O=P([O-])([O-])O.[Ca+2] [CaHPO4] | 64,000 | 10,000 |  |  |  |  |  |  |  |  |  |  | 
O=C([O-])[C@H](O)[C@@H](O)[C@H](O)[C@H](O)CO.O=C([O-])[C@H](O)[C@@H](O)[C@H](O)[C@H](O)CO.[Ca+2] [GluCa] | 128,000 | 32,000 | − | − | − | − | − | − | − | − | − | − | anti-BSA antibody/ primary response (D14) (anti-BSA antibodies; adjuvant 3 mg/dose): 116,000; anti-BSA antibody/ primary response (D28) (anti-BSA antibodies; adjuvant 3 mg/dose): 8000; anti-BSA antibody/ primary response (D42) (anti-BSA antibodies; [3]): 128,000; anti-BSA antibody/ primary response (D56) (anti-BSA antibodies; [3]): 96,000
O=C([O-])[C@H](O)[C@@H](O)[C@H](O)[C@H](O)CO.[K+] [GluK] |  |  | − | − | − | − | − | − | − | − | − | − | 
O=C([O-])[C@H](O)[C@@H](O)[C@H](O)[C@H](O)CO.O=C([O-])[C@H](O)[C@@H](O)[C@H](O)[C@H](O)CO.[Zn+2] [GluZn] |  |  |  |  |  |  |  |  |  |  |  |  | anti-BSA antibody/ primary response (D14) (anti-BSA antibodies; adjuvant 0.5 mg/dose): 16,000; anti-BSA antibody/ primary response (D28) (anti-BSA antibodies; adjuvant 0.5 mg/dose): 6000; anti-BSA antibody/ primary response (D42) (anti-BSA antibodies; [4]): 96,000; anti-BSA antibody/ primary response (D56) (anti-BSA antibodies; [4]): 96,000
O=C([O-])C(O)C(O)C(O)C(O)C(O)CO.O=C([O-])C(O)C(O)C(O)C(O)C(O)CO.[Zn+2] (centres unmarked) [GluhpZn] |  |  |  |  |  |  |  |  |  |  |  |  | anti-BSA antibody/ primary response (D42) (anti-BSA antibodies; [5]): 64,000; anti-BSA antibody/ primary response (D56) (anti-BSA antibodies; [5]): 64,000; anti-BSA antibody/ primary response (D28) (anti-BSA antibodies; adjuvant 1 mg/dose): 6000; anti-BSA antibody/ primary response (D14) (anti-BSA antibodies; adjuvant 1 mg/dose, average of 10 mice): 8000
O=P([O-])([O-])OCC(O)CO.[Ca+2] (centres unmarked) [GlyCa] |  |  |  |  |  |  |  |  |  |  |  |  | anti-BSA antibody/ primary response (D14) (anti-BSA antibodies; adjuvant 2 mg/dose): 4000; anti-BSA antibody/ primary response (D28) (anti-BSA antibodies; adjuvant 2 mg/dose): 2000; anti-BSA antibody/ primary response (D42) (anti-BSA antibodies; [6]): 64,000; anti-BSA antibody/ primary response (D56) (anti-BSA antibodies; [6]): 64,000
O=P([O-])([O-])OCC(O)CO.[Mn+2] (centres unmarked) [GlyMn] |  |  |  | + | ++ | + | − | − | + | + | + | + | 
[Cl][Mn][Cl] [MnCl^2+, reference compound] |  |  | +++ |  |  |  |  | +++ |  |  |  |  | 
